On the set-up of series [1]: method as in PMID 31689937. Particulars: intraperitoneal administration in mice; cited from earlier work.
Series [2] in a line: Rat tissue distribution 15 min after intravenous bolus. Particulars: rats; for Kp at 15 min: Sprague-Dawley, rat, brain. It counts as in vivo. On the procedure:
Figure 3 Pharmacokinetic analysis and tissue distribution of PCiv. (A) Pharmacokinetic analysis of blood PCiv levels at each indicated time point following intravenous or oral administration of PCiv (10 mg/kg) determined by ultra-performance liquid chromatography (n = 4 rats for oral and 5 rats for intravenous administration). (B) Quantification of PCiv levels in each indicated tissue (ng/g tissue weight) determined by ultra-performance liquid chromatography (n = 3 rats, tissues collected 15 min after intravenous PCiv administration (10 mg/kg). PCiv was dissolved in a vehicle (DMSO:PEG400:saline ratio of 5:70:25) for solubilization. The quantified data are expressed as means ± standard deviations.
In vivo rat pharmacokinetic studies were performed for intravenous and oral administration of PCiv as previously reported. Sprague-Dawley rats (8 weeks old, 260–280 g) were purchased from Orient Bio Inc. (Seongnam, Korea). Rats were maintained with free access to food and water under a 12:12 h light/dark cycle for 1 week. For pharmacokinetic studies, under anesthetic conditions (20 mg/kg tiletamine/zolazepam [Zoletil; Vibrac Laboratories, Carros, France] administered intramuscularly), the femoral vein and artery were surgically cannulated using polyethylene tubing (PE50; Clay Adams, Parsippany, NJ, USA) in fasted rats. Then, PCiv was administered intravenously and orally at a dose of 10 mg/kg (n = 4–5). The drug was dissolved in a vehicle (DMSO:PEG400:saline at a ratio of 5:70:25). Blood samples (approximately 100 μL) were collected at predetermined time points (0, 1, 5 (intravenous administration only), 15, 30, 60, 120, 180, 240, 360, and 480 min) after drug administration. […] The PCiv level was determined using a CapcellpakTM C18 5 μm column (250 × 1.5 mm, Shiseido Fine Chemical Co., Tokyo, Japan), as previously described. […] The tissue concentration levels were calculated as the PCiv amount (ng) per gram of organ weight.

Where two headings read alike, the source gives them in different places.

Consider `C/C=C(\C)C(=O)O[C@@H]1c2c(ccc3ccc(=O)oc23)OC(C)(C)[C@H]1OC(C)=O` (relative stereo) [PCiii, peucedanocoumarin III], for which the brain distribution entry in series [1] is reported as “demonstrated brain distribution”.

Regarding `C/C=C(\C)C(=O)O[C@H]1[C@H](OC(C)=O)c2c(ccc3ccc(=O)oc23)OC1(C)C` (relative stereo) [PCiv, trans-4′-acetyl-3′-tigloylkhellactone], the Kp at 15 min in series [2] (15 min after intravenous 10 mg/kg, read-out: brain tissue-to-plasma concentration ratio) is 6.4; in series [2] (intravenous, 10 mg/kg, read-out: distribution to target organ compared with the plasma concentration), 6.4. For the same compound, the “tissue-to-plasma concentration ratio, liver and kidneys” value in series [2] (15 min after intravenous 10 mg/kg) is reported as “low”.

(Values after publication PMC9369442, “Synthetic Peucedanocoumarin IV Prevents α-Synuclein Neurotoxicity in an Animal Model of Parkinson’s Disease” (International Journal of Molecular Sciences, 2022).)
